From publication PMC9412534, “Diindolylmethane Derivatives: New Selective Blockers for T-Type Calcium Channels” (Membranes, 2022)

What was measured:
[1] = biological target: T1, human CaV3.1 (Homo sapiens, UniProt O43497); assay: T-type calcium channel window current FLIPR assay, CaV3.1; type: cell-based; details: n = 3, read-out: IC50 CaV3.1 (LVA CaVs)
T1 construct: expressed in transfected cells; host or cells: HEK 293 T cells, transient transfection (FuGENE HD)
Method: The human embryonic kidney 293 (HEK 293) cell lines (from Emmanuel Bourinet, Montpellier, France) stably expressing CaV3.2 or CaV3.3 were cultured under 5% carbon dioxide at 37 °C in Dulbecco’s Modified Eagle Medium (DMEM) Glutamax (Gibco, Life Technologies, Carlsbad, CA, USA) supplemented with 10% (v/v) fetal bovine serum (FBS), 100 U/mL penicillin, 100 μg/mL streptomycin (Gibco, Life Technologies, Carlsbad, CA, USA), and 750 μg/mL geneticin (G418) (Gibco, Life Technologies). The Chinese Hamster Ovary (CHO) cell lines (Emmanuel Bourinet, Montpellier, France) expressing CaV3.1 were cultured under 5% carbon dioxide at 37 °C in Alpha Minimum Essential Media (MEM) Glutamax (Gibco, Life Technologies), supplemented with 10% (v/v) fetal bovine serum (FBS) and 300 μg/mL geneticin (G418) (Gibco, Life Technologies). The human neuroblastoma SH-SY5Y cells (Victor Diaz, Goettingen, Germany) were cultured under 5% carbon dioxide at 37 °C in RPMI 1640 antibiotic-free medium (Invitrogen, Carlsbad, CA, USA), supplemented with 15% FBS and 2 mM GlutaMAX™ (Invitrogen). D-PBS (Gibco, Life Technologies) was used to wash the cells, and 0.25% Trypsin-EDTA (Gibco, Life Technologies) was used to detach cells from the flask surface. They were split in a ratio of 1:5 (ideally 1000 cells/cm^2) when they reached 70–80% confluence (every 2–3 days). Transiently transfected CaV3.1 HEK293 T cells were used in FLIPR Assays. HEK 293 T cells were cultured under 5% carbon dioxide at 37 °C in DMEM supplemented with 10% (v/v) FBS. D-PBS was used to wash the cells, and 0.25% Trypsin-EDTA was used to detach cells from the flask surface. The cells were split and seeded at 6 million cells per T175 flask, to reach 70–80% confluence after 24 h. The next day, 12 μg DNA of human CaV3.1 was incubated in 900 μL serum-free DMEM with 36 μL FuGENE HD transfection reagent (Promega Corporation, Madison, WI, USA) (1:3 DNA/Fugene ratio) for 20 min, and then the mixture was added into the cell flask slowly, drop by drop. After the transfection, the cells were cultured under 5% carbon dioxide at 37 °C for 24 h and then moved to a 28 °C incubator.
HEK 293 cells stably expressing CaV3.2 or CaV3.3 were seeded into 384-well black wall clear bottom plates (Corning) at a density of 30,000 cells per well. Transiently transfected CaV3.1HEK293 T cells were seeded into 384-well black wall clear bottom plates at a density of 60,000 cells per well. Once the cells reached 90–95% confluence after 24 h, the media were removed from the wells and replaced with 20 μL of 10% calcium 4 dye (Molecular Devices, Sunnyvale, CA, USA) in HBSS-HEPES (containing 5 mM KCl, 10 mM HEPES, 140 mM NaCl, 10 mM glucose, and 0.5 mM CaCl2, pH 7.4) with 0.1% bovine serum albumin (BSA). The cells were incubated for 30 min at 37 °C in the presence of 5% carbon dioxide. Each well on the reagent plates for the first addition contained 15 μL different concentrations of compounds dissolved in HBSS-HEPES containing 0.1% BSA and <0.5% DMSO and was incubated for 20 min after loaded. Positive and negative controls contained 15 μL of HBSS-HEPES (0.1% BSA) alone. The plates were placed in the FLIPR^TETRA (Molecular Devices, Sunnyvale, CA, USA) programmed to measure maximum fluorescence intensity following a second addition of the agonist 5 mM CaCl2. The fluorescence readings were recorded and converted as described previously, and HBSS-HEPES (0.1% BSA) was used in the second addition as a negative control.

[2] = tested on: HT-29 cells; assay: Cell viability MTT assay, HT-29; type: cell-based, human; details: for IC50: n = 3; for viability at 50 µM: HT-29, 50 µM, n = 4; for preferential anti-proliferative activity on HT-29: versus MCF-7, T-47D, A549
Method: (§1) Human breast cancer cell line MCF-7 and T-47D, lung cancer cell line A549, and colon cancer cell line HT-29 were cultured under 5% carbon dioxide at 37 °C in DMEM Glutamax (Gibco, Life Technologies) supplemented with 10% (v/v) FBS. They were split in a ratio of 1:3–1:6 (ideally 2–4 × 10,000 cells/cm^2) when they reached 70–80% confluence using 0.25% Trypsin-EDTA. For cell viability MTT assay, cells were seeded into 96-well clear bottom culture plates (Corning, Lowell, MA, USA) at a density of 5 × 10^3 cells/well and settled at 37 °C for 24 h.
(§2) Seeded cells were treated with various concentrations of compounds for desired time period (24, 48 and 72 h). After the treatments, the media were removed from each well, and replaced with 25 μL of serum-free media and 25 μL of MTT Reagent (cat. no., ab211091; Abcam, Cambridge, MA, USA). The plate was then incubated at 37 °C for 3 h, and 75 μL of MTT Solvent (cat. no., ab211091; Abcam) was added into each well after incubation. The absorbance was evaluated at 590 nm. Cell-wells treated with 0.1% DMSO were used as positive control and no cell-wells were used as background control.

[3] = tested on: MCF-7 cells; assay: Cell viability MTT assay, MCF-7; type: cell-based, human; details: for IC50: n = 3; for viability at 50 µM: MCF7, 50 µM, n = 4
Method: as §1, §2

[4] = Homo sapiens, HT-29, 72 h, 72 h treatment
[5] = Homo sapiens, MCF7, 72 h, 72 h treatment

T1 sequence (O43497 whole entry): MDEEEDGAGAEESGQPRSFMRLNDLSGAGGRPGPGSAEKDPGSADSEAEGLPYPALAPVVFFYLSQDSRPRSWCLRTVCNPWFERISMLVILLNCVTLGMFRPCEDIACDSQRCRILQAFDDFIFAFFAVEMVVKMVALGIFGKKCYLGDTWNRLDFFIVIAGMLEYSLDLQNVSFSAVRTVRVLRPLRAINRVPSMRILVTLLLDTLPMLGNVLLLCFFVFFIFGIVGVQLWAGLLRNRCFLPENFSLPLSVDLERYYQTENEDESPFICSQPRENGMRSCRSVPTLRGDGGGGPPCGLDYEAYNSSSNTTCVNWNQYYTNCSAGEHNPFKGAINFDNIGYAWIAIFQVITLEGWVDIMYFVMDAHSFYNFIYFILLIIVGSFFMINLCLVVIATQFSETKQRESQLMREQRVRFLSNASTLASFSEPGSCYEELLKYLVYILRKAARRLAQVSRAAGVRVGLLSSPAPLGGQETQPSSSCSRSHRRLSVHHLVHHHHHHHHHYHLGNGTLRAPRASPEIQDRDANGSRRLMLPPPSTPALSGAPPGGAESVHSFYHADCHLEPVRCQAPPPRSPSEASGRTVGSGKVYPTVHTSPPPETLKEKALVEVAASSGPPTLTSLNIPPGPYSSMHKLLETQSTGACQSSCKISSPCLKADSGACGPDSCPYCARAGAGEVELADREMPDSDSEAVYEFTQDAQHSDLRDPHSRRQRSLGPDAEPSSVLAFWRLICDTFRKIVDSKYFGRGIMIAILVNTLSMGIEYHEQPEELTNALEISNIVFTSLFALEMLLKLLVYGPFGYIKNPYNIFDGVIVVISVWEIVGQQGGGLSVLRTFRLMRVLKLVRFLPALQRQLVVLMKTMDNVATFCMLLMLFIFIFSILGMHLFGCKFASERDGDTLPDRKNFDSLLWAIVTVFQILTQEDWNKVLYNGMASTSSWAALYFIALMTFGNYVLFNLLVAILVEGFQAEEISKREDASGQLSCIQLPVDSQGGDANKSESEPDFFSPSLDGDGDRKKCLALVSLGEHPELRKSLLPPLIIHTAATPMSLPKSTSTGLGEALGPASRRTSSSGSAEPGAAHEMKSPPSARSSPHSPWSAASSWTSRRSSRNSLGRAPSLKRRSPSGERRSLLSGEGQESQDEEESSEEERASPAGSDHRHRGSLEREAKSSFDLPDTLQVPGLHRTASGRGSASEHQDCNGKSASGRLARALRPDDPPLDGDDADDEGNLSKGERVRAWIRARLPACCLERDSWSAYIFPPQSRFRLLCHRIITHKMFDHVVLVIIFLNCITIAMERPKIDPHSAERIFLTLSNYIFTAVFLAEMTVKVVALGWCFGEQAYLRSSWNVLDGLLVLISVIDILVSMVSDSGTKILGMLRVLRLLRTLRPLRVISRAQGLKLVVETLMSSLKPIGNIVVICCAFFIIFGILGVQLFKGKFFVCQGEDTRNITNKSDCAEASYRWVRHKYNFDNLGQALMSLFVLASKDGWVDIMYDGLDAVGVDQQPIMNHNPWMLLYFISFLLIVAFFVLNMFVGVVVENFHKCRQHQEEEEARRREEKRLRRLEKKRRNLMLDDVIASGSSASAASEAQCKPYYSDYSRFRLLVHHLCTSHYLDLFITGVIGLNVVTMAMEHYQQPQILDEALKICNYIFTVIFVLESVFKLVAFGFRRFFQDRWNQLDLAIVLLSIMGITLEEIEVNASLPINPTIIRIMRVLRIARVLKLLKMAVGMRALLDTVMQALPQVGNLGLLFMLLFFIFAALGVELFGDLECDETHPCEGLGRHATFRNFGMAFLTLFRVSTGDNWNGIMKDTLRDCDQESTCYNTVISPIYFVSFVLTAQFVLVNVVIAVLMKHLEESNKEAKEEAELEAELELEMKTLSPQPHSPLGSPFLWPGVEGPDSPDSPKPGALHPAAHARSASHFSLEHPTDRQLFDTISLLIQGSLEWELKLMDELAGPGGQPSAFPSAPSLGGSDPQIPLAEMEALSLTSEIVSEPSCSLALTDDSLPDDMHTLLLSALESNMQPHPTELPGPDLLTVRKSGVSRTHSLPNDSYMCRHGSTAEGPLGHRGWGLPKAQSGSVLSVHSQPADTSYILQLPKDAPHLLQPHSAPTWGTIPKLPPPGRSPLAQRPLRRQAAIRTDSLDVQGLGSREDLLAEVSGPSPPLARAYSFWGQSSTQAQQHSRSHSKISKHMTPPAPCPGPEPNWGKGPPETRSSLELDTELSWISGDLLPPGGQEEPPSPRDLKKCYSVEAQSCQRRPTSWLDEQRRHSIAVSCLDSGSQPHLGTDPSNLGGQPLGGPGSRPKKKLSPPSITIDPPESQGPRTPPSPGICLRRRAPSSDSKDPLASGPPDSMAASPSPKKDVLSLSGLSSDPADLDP

O=C(c1cn(Cc2ccccc2)c2ccccc12)c1cn(Cc2ccccc2)c2ccccc12 [IX, bis(1-benzyl-1H-indol-3-yl)methanone]
IC50 [1]: 35.1 ± 1.05 µM

O=C(c1c[nH]c2cc(Br)ccc12)c1c[nH]c2cc(Br)ccc12 [IV]
better antiproliferative effect on HT-29 cell viability than on the other three cancer cell lines ([2]; 72 h treatment): ~ 3 fold
improved potency on HT-29 cell viability compared with the other three compounds ([2]; 72 h treatment): > 10 fold
IC50 ([2]; 72 h treatment): 1.2 µM
viability at 50 µM ([2]; Homo sapiens, 72 h treatment): 0.85 ± 0.21%
IC50 ([2]; Homo sapiens, HT-29, 24 h, 24 h treatment): 5.9 µM
IC50 ([2]; Homo sapiens, HT-29, 48 h, 48 h treatment): 1.6 µM
IC50 [2, 4]: 1 µM
preferential anti-proliferative activity on HT-29 [2]: preferential anti-proliferative activity
IC50 ([3]; 72 h treatment): 6.1 µM
viability at 50 µM ([3]; Homo sapiens, 72 h treatment): 6.35 ± 0.46%
IC50 ([3]; Homo sapiens, MCF7, 24 h, 24 h treatment): 9.8 µM
IC50 [3, 5]: 6 µM
IC50 [1]: 53.5 ± 2 µM

c1ccc2c(Cc3c[nH]c4ccccc34)c[nH]c2c1 [DIM, 3,3′-diindolylmethane, reference compound]
viability at 50 µM ([2]; Homo sapiens, 72 h treatment): 25.3 ± 2.44%
IC50 [2, 4]: 33 µM
viability at 50 µM ([3]; Homo sapiens, 72 h treatment): 3.65 ± 0.24%
IC50 [3, 5]: 27 µM
IC50 [1]: > 200 µM

O=C(c1c[nH]c2ccccc12)c1c[nH]c2ccccc12 [DIM-one, 3,3′-diindolylmethanone]
better antiproliferative effect on HT-29 cell viability than on the other three cancer cell lines ([2]; 72 h treatment): ≥ 2 fold
viability at 50 µM ([2]; Homo sapiens, 72 h treatment): 5.95 ± 0.19%
IC50 [2, 4]: 20 µM
preferential anti-proliferative activity on HT-29 [2]: preferential anti-proliferative activity
viability at 50 µM ([3]; Homo sapiens, 72 h treatment): 52.3 ± 3.12%
IC50 [3, 5]: 42 µM
IC50 [1]: 158 ± 11.1 µM
